Measurements taken from US5026711A, “4-amino quinolines and naphthyridines and their use as medicines” (priority 1988, dated 1991).

Assay: oral acute toxicity in the mouse (LD50)
Format: in vivo
Details: 500 mg/kg
Protocol: The compounds of Examples 3, 67, 90, 107 and 114 are atoxic at the dose of 500 mg/kg in the mouse.

| SMILES | atoxic at the dose of 500 mg/kg |
| --- | --- |
| CC(Nc1c(C(=O)c2ccccc2)cnc2cccnc12)C(=O)N(C)c1ccc(Cl)cc1 (stereo not drawn) [SR 26455] | atoxic |
| CN(C(=O)CCNc1c(C(=O)c2ccccc2)cnc2cccnc12)c1ccc(Cl)cc1 [SR 26731] | atoxic |
| CN(C(=O)CNc1c(C(=O)c2ccccc2)cnc2cccnc12)c1ccc(Cl)cc1Cl [SR 26972] | atoxic |
| COc1ccc(N(C)C(=O)CNc2c(C(=O)c3ccccc3)cnc3cc(Br)ccc23)cc1 [SR 27195] | atoxic |

Same assay, conditions: in vivo, oral route

| SMILES | LD50 |
| --- | --- |
| CCCN(CCC)C(=O)C(C)Nc1c(C(=O)OCC)cnc2cc(C(F)(F)F)ccc12 (stereo not drawn) [SR 26241, ethyl 4-[1-(N,N-dipropylcarbamoyl)ethylamino] 7-trifluoromethyl quinoline 3-carboxylate] | 1100 mg/kg |
| CN(C(=O)CNc1c(C(=O)c2ccccc2)cnc2cccnc12)c1ccc(Cl)cc1 [SR 26276] | > 1800 mg/kg |
